Measured values published in article PMC9530963, “A cathelicidin antimicrobial peptide from Hydrophis cyanocinctus inhibits Zika virus infection by downregulating expression of a viral entry factor” (The Journal of Biological Chemistry, 2022).

How the values were obtained:
ZIKV [1] = assay: Binding of Hc-CATH to ZIKV (ELISA); parameters: species or system ZIKV strain PRVABC59; details: plates coated with 0.25 μM peptide, 1 × 10^6 PFU ZIKV, absorbance at 450 nm
Procedure: Figure 8 Hc-CATH directly inactivates ZIKV particles by disrupting viral membrane.A, schematic diagram of B–G (Hc-CATH-Vero-pre). B–G, direct inactivation of ZIKV by Hc-CATH. ZIKVs (MOI = 1) were incubated with Hc-CATH (2.5 μM), AC5 (2.5 μM), LL-37 (2.5 μM), or PBS (peptide solvent) at 37 °C for 2 h, and then the ZIKV–PBS mixture and ZIKV–peptide mixture were centrifugated at 100,000g for 70 min. The pellets were washed with PBS and centrifugated at 100,000g for 70 min again. The pellets were resuspended in PBS, added to Vero cells, and incubated for 2 h. Cells were washed with PBS and cultured in fresh DMEM containing 2% FBS. After culture at 37 °C for 48 h, the intracellular ZIKV RNA (B), NS3 protein (C and D), E protein level (E, the scale bar represents 50 μm), and extracellular ZIKV titer (F and G) were tested by qPCR, Western blot, immunofluorescence staining, and plaque-forming assay, respectively. H, binding of Hc-CATH to ZIKV. High-affinity binding plates were coated with 0.25 μM of Hc-CATH, BSA, AC5, or LL-37. Then, 1 × 10^6 PFU of ZIKV was added and incubated. […] Absorbance at 450 nm was measured after reactions were stopped using 0.5 M sulfuric acid. […] After the residual RNase was inactivated, the undigested genomic RNA in the intact ZIKV particles was extracted and quantified by testing the genes of PrM, E, and Cap proteins, respectively. ∗∗p < 0.01 and ∗∗∗p < 0.001. […]

ZIKV [2] = details: i.v. peptide 2 h after i.v. ZIKV 10^6 PFU/mouse, qPCR
Description: At 4, 8, and 3 days post ZIKV inoculation, C57BL/6J mice, Ifnar1^−/− mice, and pregnant C57BL/6J mice were sacrificed, respectively. Tissues and fetal mice were collected for testing ZIKV RNA by qPCR. ns, not significant, ∗p < 0.05, ∗∗p < 0.01, and ∗∗∗p < 0.001. Hc-CATH, a cathelicidin antimicrobial peptide identified from the sea snake Hydrophis cyanocinctus; PFU, plaque-forming unit; qPCR, quantitative PCR; ZIKV, Zika virus.
To evaluate the therapeutic efficacy of Hc-CATH against ZIKV infection, C57BL/6J mice, Ifnar1^−/− mice, and pregnant C57BL/6J mice were intravenously administrated with Hc-CATH at 2 h after intravenous injection of ZIKV (10^6 PFU/mouse). C57BL/6J mice, Ifnar1^−/− mice, and pregnant C57BL/6J mice were sacrificed at 4, 8, and 3 days post ZIKV inoculation, respectively. Tissues and fetal mice were collected for testing ZIKV RNA level by qPCR.

ZIKV [3] = assay: Susceptibility of A549 cells to ZIKV (peptide pretreatment); type: cell-based, ZIKV strain PRVABC59; details: 1.25, 2.5, and 5 μM, 2 h before ZIKV MOI = 1; 24 h; Western blot
Procedure: Figure 4 Hc-CATH downregulates AXL in A549 cell.A, schematic diagram of B and C. B, A549 cells were seeded in 24-well plates (5 × 10^4 cells/well) and cultured in DMEM containing 2% FBS. Hc-CATH (1.25, 2.5, and 5 μM) or same volume of PBS (peptide solvent) was added to cells and incubated at 37 °C for 24 h. The level of AXL was tested by Western blot. C, A549 cells were seeded in 8-well cover slip chambers (5 × 10^4 cells/well) and cultured in DMEM containing 2% FBS. Hc-CATH (1.25, 2.5, and 5 μM) or PBS was added to cells and incubated at 37 °C for 24 h. The level of AXL was tested by immunofluorescence staining. The scale bar represents 50 μm. D, schematic diagram of E and G. E and G, A549 cells were seeded in 24-well plates (5 × 10^4 cells/well) and cultured in DMEM containing 2% FBS. Hc-CATH (1.25, 2.5, and 5 μM) or PBS was added to cells and incubated at 37 °C for 2 h. Cells were washed with PBS and incubated with ZIKV (MOI = 1). After incubation at 37 °C for 2 h, cells were washed with PBS and cultured in DMEM containing 2% FBS.
Vero, A549, or U251 cells were incubated with peptide or PBS at 37 °C for 2 h. […]
The effect of Hc-CATH on AXL was further confirmed in A549 and U251 cells. A549 or U251 cells were incubated with Hc-CATH (1.25, 2.5, and 5 μM) or PBS at 37 °C for 24 h, and the level of AXL was detected by WB and IF, respectively. […]

Sequence: KFFKRLLKSVRRAVKKFRKKPRLIGLSTLL [Hc-CATH, cathelicidin antimicrobial peptide identified from the sea snake Hydrophis cyanocinctus]
- binding to ZIKV (ZIKV [1]): stronger binding affinity with ZIKV as compared with bovine serum albumin
- ZIKV replication in C57BL/6J mice, therapeutic (ZIKV [2]; 4 days, tissue ZIKV RNA): significantly attenuated ZIKV replication
- ZIKV replication in Ifnar1−/− mice, therapeutic (ZIKV [2]; 8 days, tissue ZIKV RNA): significantly attenuated ZIKV replication
- ZIKV replication in fetal placenta and fetal mice, therapeutic (ZIKV [2]; pregnant C57BL/6J mice, 3 days): significantly attenuated ZIKV replication
- susceptibility of A549 cells to ZIKV (NS3 protein) (ZIKV [3]): decreased the susceptibility
